Test results from paper PMC8802806, “Synthesis and Antitumor Activity of Erlotinib Derivatives Linked With 1,2,3-Triazole” (Frontiers in Pharmacology, 2022).
Where “and” joins values, the source holds several entries; their conditions need not be identical. Identical values can stand only once. Like-named read-outs stand apart in the source and are kept apart here.

Tests used:
HeLa cells [1] = conditions: cited from earlier work
HeLa cells [2] = test: Cell antiproliferative activity assay (CCK8); assay type: cell-based, human; conditions: for inhibition at 0.25 µM: 250 nM; for inhibition at 0.5 µM: 500 nM; for inhibition at 1 µM: 1000 nM; for inhibition at 2 µM: 2000 nM; for inhibition at 4 µM: 4000 nM; for inhibition at 8 µM: 8000 nM; for inhibition at 16 µM: 16000 nM
Method: Cell antiproliferative activity was evaluated by the Cell Counting Kit-8 (CCK8, DOJINDO, Japan) assay. The cells were seeded at a density of 2,000 cells per well into 96-well microplate in 100 μl of growth medium. Cells were incubated at 37°C and 5% CO2 overnight. The next day, 100 μl per well of diluted inhibitor in growth medium was added with the final concentration from 0.1 nM to 100 μM. The cells were treated with DMSO as control. A series of dilutions are made in 0.1% DMSO in assay medium so that the final concentration of DMSO is 0.1% in all of treatments. Cells were incubated at 37°C and 5% CO2 for 48 h. Then, 10 μl of CCK8 was added to each well. The plates were incubated at 37°C for 2 h; after that, the plates were recorded by measuring absorbance at 450 nm with the reference wavelength of 630 nm using an EnVision Multilabel Reader (PerkinElmer). The IC50 values were calculated using GraphPad Prism 6.0 software and determined by the concentration causing a half-maximal percent activity. All assays were conducted with three parallel samples and three repetitions.

HeLa cells [3] = test: Flow cytometry detection for cell apoptosis (Annexin V/PI); assay type: cell-based, human; conditions: single samples; for Q3: FITC-A+ , PE-A- Freq. of Parent / Q2: FITC-A+ , PE-A+ Freq. of Parent: 72 h, Annexin V/PI
Method: Cell-apoptosis analysis was carried out by flow cytometry using the Annexin V/PI apoptosis kit (Solarbio, China) according to the manufacturer’s manual. Briefly, HeLa (5 × 10^4/well) cells were seeded in 12-well plates for 24 h and then treated with 0.1% DMSO (as control) or various concentrations of compounds 4d, 4k, and 4l for 72 h, respectively. Cells were harvested, washed with PBS, and then incubated with 100 μl of 1 × Annexin V binding buffer containing 1 μl FITC Annexin V for 10 min at RT in the dark. Cells were incubated for another 5 min at room temperature (RT) in the dark after 1 μl PI was added. PBS (200 µl) was added to each tube for flow cytometry analysis (BriCyte E6). The percentages of apoptotic cells were analyzed using FlowJo soft.

[4] = amidino 2-substituted benzimidazoles linked to 1,2,3-triazoles, ref Raic-Malic et al., read-out: IC50 antiproliferation activities against HeLa cells
[5] = chromenocarbazole tethered 1,2,3-triazoles, ref Chavan et al., 2019, read-out: IC50 antiproliferative activity in HeLa cells
[6] = Homo sapiens, HeLa, 48 h, HeLa cells, CCK8, 48 h, mean ± SD, n = 3, read-out: IC50 (μM) HeLa
[7] = Homo sapiens, HeLa, HELA 2000cells/well, supplement DataSheet2, Repeat1, read-out: IC50 Repeat1
[8] = Homo sapiens, HeLa, HELA 2000cells/well, supplement DataSheet2, Repeat 2, read-out: IC50 Repeat 2
[9] = Homo sapiens, HeLa, HELA 2000cells/well, supplement DataSheet2, mean of two repeats ± SD, read-out: IC50 mean±SD
[10] = Homo sapiens, HELA 2000cells/well, Repeat1, read-out: Inhibition (%) Repeat1
[11] = Homo sapiens, HELA 2000cells/well, Repeat2, read-out: Inhibition (%) Repeat2

Row | Structure (SMILES) | IC50 (HeLa cells [1]; [5]) [µM] | IC50 (HeLa cells [2]; [6]) [µM] | IC50 (HeLa cells [2]; [7]) [µM] | IC50 (HeLa cells [2]; [8]) [µM] | IC50 (HeLa cells [2]; [9]) [µM] | inhibition at 0.25 µM (HeLa cells [2]; [10]) [%] | inhibition at 0.25 µM (HeLa cells [2]; [11]) [%] | inhibition at 0.5 µM (HeLa cells [2]; [10]) [%] | inhibition at 0.5 µM (HeLa cells [2]; [11]) [%] | inhibition at 1 µM (HeLa cells [2]; [10]) [%] | inhibition at 1 µM (HeLa cells [2]; [11]) [%] | inhibition at 2 µM (HeLa cells [2]; [10]) [%] | inhibition at 2 µM (HeLa cells [2]; [11]) [%] | inhibition at 4 µM (HeLa cells [2]; [10]) [%] | inhibition at 4 µM (HeLa cells [2]; [11]) [%] | inhibition at 8 µM (HeLa cells [2]; [10]) [%] | inhibition at 8 µM (HeLa cells [2]; [11]) [%] | inhibition at 16 µM (HeLa cells [2]; [10]) [%] | inhibition at 16 µM (HeLa cells [2]; [11]) [%] | melting point [°C] | further results
1 | c1ccc(Cn2cc(COc3ccc(-c4nc5cc(C6=NCCN6)ccc5[nH]4)cc3)nn2)cc1 [11f] | – | – | – | – | – | – | – | – | – | – | – | – | – | – | – | – | – | – | – | – | IC50 (HeLa cells [1]; [4]): 6.63 µM
2 | Cc1ccc(Cn2cc(CN3C(=O)C4(C(C#N)=C(N)Oc5c4ccc4[nH]c6ccccc6c54)c4ccccc43)nn2)cc1 (stereo not drawn) [6b] | 4.05 | – | – | – | – | – | – | – | – | – | – | – | – | – | – | – | – | – | – | – | –
3 | COCCOc1cc2ncnc(Nc3cccc(-c4cn(-c5cccc([N+](=O)[O-])c5)nn4)c3)c2cc1OCCOC [Compound 4m, [6,7-Bis-(2-methoxy-ethoxy)-quinazolin-4-yl]-{3-[1-(3-nitro-phenyl)-1H-[1,2,3]triazol-4-yl]-phenyl}-amine] | – | 3.79 ± 0.1 | 3.89 | 3.69 | 3.79 ± 0.103 | 0 | 7.86 | 3.48 | 5.51 | 8.91 | 15.1 | 42.2 | 42.1 | 54.2 | 56.2 | 67.5 | 66.5 | 77.1 | 77.2 | 98 to 101 | –
4 | CC(C)NC(=N)c1ccc2[nH]c(-c3ccc(OCc4cn(Cc5ccc(Cl)cc5)nn4)cc3)nc2c1 [10c] | – | – | – | – | – | – | – | – | – | – | – | – | – | – | – | – | – | – | – | – | IC50 (HeLa cells [1]; [4]): 17.5 µM
5 | Cc1ccc(Cn2cc(CN3C(=O)C4(C(C#N)=C(N)Oc5c4ccc4[nH]c6ccccc6c54)c4cc(F)ccc43)nn2)cc1 (stereo not drawn) [6u] | 3.35 | – | – | – | – | – | – | – | – | – | – | – | – | – | – | – | – | – | – | – | –
6 | CCOc1cccc(-n2cc(-c3cccc(Nc4ncnc5cc(OCCOC)c(OCCOC)cc45)c3)nn2)c1 [Compound 4n, [6,7-Bis-(2-methoxy-ethoxy)-quinazolin-4-yl]-{3-[1-(3-ethoxy-phenyl)-1H-[1,2,3]triazol-4-yl]-phenyl}-amine] | – | 8.21 ± 1.05 | 7.21 | 9.31 | 8.21 ± 1.05 | 0 | 2.69 | 4.33 | 4.33 | 7.26 | 6.45 | 12.8 | 10.8 | 31.2 | 18.5 | 51.9 | 45.5 | 77.1 | 69.6 | 110 to 114 | Q3: FITC-A+ , PE-A- Freq. of Parent (HeLa cells [3]; 3 μM): 0.75% and 1.15% and 1.24%; Q2: FITC-A+ , PE-A+ Freq. of Parent (HeLa cells [3]; 6 μM): 21.9%; Q3: FITC-A+ , PE-A- Freq. of Parent (HeLa cells [3]; 6 μM): 5.30% and 1.36% and 0.76%; Q2+Q3 (as fraction) (HeLa cells [3]; 6 μM): 0.272 and 0.3116 and 0.2626; Q2: FITC-A+ , PE-A+ Freq. of Parent (HeLa cells [3]; 12 μM): 61.9%; Q3: FITC-A+ , PE-A- Freq. of Parent (HeLa cells [3]; 12 μM): 2.53% and 1.19% and 1.05%; Q2+Q3 (as fraction) (HeLa cells [3]; 12 μM): 0.6443 and 0.5879 and 0.6565
7 | COCCOc1cc2ncnc(Nc3cccc(-c4cn(-c5ccccc5Br)nn4)c3)c2cc1OCCOC [Compound 4i, [6,7-Bis-(2-methoxy-ethoxy)-quinazolin-4-yl]-{3-[1-(2-bromo-phenyl)-1H-[1,2,3]triazol-4-yl]-phenyl}-amine] | – | 4.16 | 4.41 | 4.3 | 4.36 ± 0.054 | 2.62 | 0 | 6.42 | 5.74 | 9.04 | 6.59 | 15.2 | 17.7 | 41.6 | 42.6 | 83.4 | 83.9 | 88.1 | 88.9 | 93 to 97 | IC50 (HeLa cells [2]; HeLa cells, CCK8, 48 h, mean ± SD, n = 3, read-out: IC50 (μM) HeLa): 4.36 ± 0.15 µM
8 | N#CC1=C(N)Oc2c(ccc3[nH]c4ccccc4c23)C12C(=O)N(Cc1cn(Cc3ccc(Cl)cc3)nn1)c1ccc(Br)cc12 (stereo not drawn) [6s] | 3.83 | – | – | – | – | – | – | – | – | – | – | – | – | – | – | – | – | – | – | – | –
9 | COCCOc1cc2ncnc(Nc3cccc(-c4cn(-c5ccccc5F)nn4)c3)c2cc1OCCOC [Compound 4f, [6,7-Bis-(2-methoxy-ethoxy)-quinazolin-4-yl]-{3-[1-(2-fluoro-phenyl)-1H-[1,2,3]triazol-4-yl]-phenyl}-amine] | – | 30.7 ± 1.83 | 32.4 | 28.7 | 30.7 ± 1.83 | 2.17 | 0 | 2.51 | 0.418 | 3.51 | 0.502 | 4.77 | 2.17 | 8.86 | 3.18 | 29.8 | 23.1 | 31.1 | 30.4 | 83 to 86 | –
10 | N#CC1=C(N)Oc2c(ccc3[nH]c4ccccc4c23)C12C(=O)N(Cc1cn(Cc3ccc(C(F)(F)F)cc3)nn1)c1ccccc12 (stereo not drawn) [6g] | 3.54 | – | – | – | – | – | – | – | – | – | – | – | – | – | – | – | – | – | – | – | –
11 | COCCOc1cc2ncnc(Nc3cccc(-c4cn(Cc5ccccc5I)nn4)c3)c2cc1OCCOC [Compound 4b, [6,7-Bis-(2-methoxy-ethoxy)-quinazolin-4-yl]-{3-[1-(2-iodo-benzyl)-1H-[1,2,3]triazol-4-yl]-phenyl}-amine] | – | 11.5 ± 1.69 | 9.72 | 13.1 | 11.5 ± 1.69 | 8.56 | 0 | 12.5 | 0 | 13.3 | 3.42 | 17.6 | 7.96 | 37.8 | 28.2 | 52 | 40.8 | 54.8 | 51.1 | 93 to 96 | –
12 | COCCOc1cc2ncnc(Nc3cccc(-c4cn(-c5ccccc5Cl)nn4)c3)c2cc1OCCOC [Compound 4h, [6,7-Bis-(2-methoxy-ethoxy)-quinazolin-4-yl]-{3-[1-(2-chloro-phenyl)-1H-[1,2,3]triazol-4-yl]-phenyl}-amine] | – | 8.85 ± 0.56 | 8.32 | 9.44 | 8.86 ± 0.559 | 0 | 1.75 | 7.08 | 3.15 | 7.26 | 6.12 | 13.4 | 11.2 | 31.3 | 29.2 | 54.3 | 51.4 | 63.2 | 59.4 | 131 to 134 | –
13 | COc1ccc2c(-n3cc(-c4cc(OC)c(OC)c(OC)c4)nn3)c(C(=O)Nc3ccccc3)oc2c1 [17 g, 6-methoxy-N-phenyl-3-[4-(3,4,5-trimethoxyphenyl)-1H-1,2,3-triazol-1-yl] benzofuran-2 carboxamide] | – | – | – | – | – | – | – | – | – | – | – | – | – | – | – | – | – | – | – | – | IC50 (HeLa cells [1]; ref Qi et al., 2020, read-out: IC50 antiproliferative activities against HeLa cells): 0.73 ± 0.67 µM
